# According to patent publication US20240327407A1, “NOVEL INHIBITORS OF AUTOTAXIN” (CADILA HEAL THCARE LIMITED, priority 2021, published 2024):
# Target: ATX (Mus musculus (Mouse), UniProt Q9R1E6)
# Test: Mice serum ATX inhibitory activity (IC50 determination)
# Format: biochemical
# Experimental: ATX Inhibitory activity was determined in a biochemical or whole blood assay as described previously (Bretschneider, T. et al., SLAS Discov 2017, 22, 425). The biochemical reaction consisted of 50 mM Tris (pH 8.0), 3 mM KCl, 1 mM CaCl2, 1 mM Mg Cl2, […] NaCl and 0.1% bovine serum albumin, which was supplemented with 5 nM recombinant rat ATX, 5 μM 18:1 LPC and the test compound (0.1-10 μM). The reaction was stopped at 2 h by the addition of butanol, prior to the RapidFire-MS-based analysis.
# The whole blood assay consisted of 45 μL μL heparinized mice/rat whole blood and the test compound (0.12-100 μM). The reaction was stopped after 1 h at 37° C. by addition of 100 μL 40 mM disodium hydrogen phosphate buffer containing 30 mM citric acid (pH 4) and 1 μM 17:0 LPA (internal standard). Afterwards the samples were treated a described above and analysed by LC-MS/MS. The data was analyzed using graph pad prism (v 7.03) to arrive at the half-maximal inhibitory concentrations (IC50) of the test compounds.
row,SMILES,IC50 [nM]
1,"CC(C)[C@@H](NC(=O)c1cc(C(F)(F)F)ccc1F)C(=O)N1CCC2(CC1)C(=O)N(C)C(=O)C2c1ccccc1 (stereo partly drawn) [Compound 1, 2-fluoro-N-((2R)-3-methyl-1-(2-methyl-1,3-dioxo-4-phenyl-2,8-diazaspiro[4.5]decan-8-yl)-1-oxobutan-2-yl)-5-(trifluoromethyl)benzamide]",91
2,"CC(C)[C@@H](NC(=O)c1cc(C(F)(F)F)ccc1F)C(=O)N1CCC2(CC1)C(=O)N(CCN)C(=O)C2c1ccccc1 (stereo partly drawn) [Compound 33, N-((2R)-1-(2-(2-aminoethyl)-1,3-dioxo-4-phenyl-2,8-diazaspiro[4.5]decan-8-yl)-3-methyl-1-oxobutan-2-yl)-2-fluoro-5-(trifluoromethyl)benzamide]",69.8
3,"CC(C)[C@@H](NC(=O)c1cc(C(F)(F)F)ccc1F)C(=O)N1CCC2(CC1)C(=O)N(C)CC2c1ccccc1 (stereo partly drawn) [Compound 44, 2-fluoro-N-((2R)-3-methyl-1-(2-methyl-1-oxo-4-phenyl-2,8-diazaspiro[4.5]decan-8-yl)-1-oxobutan-2-yl)-5-(trifluoromethyl)benzamide]",4
4,"CC(C)[C@@H](NC(=O)c1cc(C(F)(F)F)ccc1F)C(=O)N1CCC2(CC1)C(=O)NCC2c1ccccc1 (stereo partly drawn) [Compound 45, 2-fluoro-N-((2R)-3-methyl-1-oxo-1-(1-oxo-4-phenyl-2,8-diazaspiro[4.5]decan-8-yl)butan-2-yl)-5-(trifluoromethyl)benzamide]",19.2
5,"CC(C)[C@@H](NC(=O)c1cc(C(F)(F)F)ccc1F)C(=O)N1CCC2(CC1)C(=O)N(C)CC2c1cccnc1 (stereo partly drawn) [Compound 56, 2-fluoro-N-((2R)-3-methyl-1-(2-methyl-1-oxo-4-(pyridin-3-yl)-2,8-diazaspiro[4.5]decan-8-yl)-1-oxobutan-2-yl)-5-(trifluoromethyl)benzamide]",13.3
6,"CC(C)[C@@H](NC(=O)c1cc(C(F)(F)F)ccc1F)C(=O)N1CCC2(CC1)C(=O)NCC2c1cccnc1 (stereo partly drawn) [Compound 57, 2-fluoro-N-((2R)-3-methyl-1-oxo-1-(1-oxo-4-(pyridin-3-yl)-2,8-diazaspiro[4.5]decan-8-yl)butan-2-yl)-5-(trifluoromethyl)benzamide]",56.2
7,"CC(C)[C@@H](NC(=O)c1cc(C(F)(F)F)ccc1F)C(=O)N1CCC2(CC1)C(=O)N(C)CC2c1ccc2[nH]ncc2c1 (stereo partly drawn) [Compound 58, N-((2R)-1-(4-(1H-indazol-5-yl)-2-methyl-1-oxo-2,8-diazaspiro[4.5]decan-8-yl)-3-methyl-1-oxobutan-2-yl)-2-fluoro-5-(trifluoromethyl)benzamide]",58.9
8,"CC(C)[C@@H](NC(=O)c1cc(C(F)(F)F)ccc1F)C(=O)N1CCC2(CC1)CN(C)CC2c1ccccc1 (stereo partly drawn) [Compound 62, 2-fluoro-N-((2R)-3-methyl-1-(2-methyl-4-phenyl-2,8-diazaspiro[4.5]decan-8-yl)-1-oxobutan-2-yl)-5-(trifluoromethyl)benzamide]",6.6
9,"CC(C)[C@@H](NC(=O)c1cc(C(F)(F)F)ccc1F)C(=O)N1CCC2(CC1)CN(C)CC2c1cccnc1 (stereo partly drawn) [Compound 64, 2-fluoro-N-((2R)-3-methyl-1-(2-methyl-4-(pyridin-3-yl)-2,8-diazaspiro[4.5]decan-8-yl)-1-oxobutan-2-yl)-5-(trifluoromethyl)benzamide]",13.4
10,"CC(C)[C@@H](NC(=O)c1cc(C(F)(F)F)ccc1F)C(=O)N1CCC2(CC1)CN(C)CC2c1ccc2[nH]ncc2c1 (stereo partly drawn) [Compound 65, N-((2R)-1-(4-(1H-indazol-5-yl)-2-methyl-2,8-diazaspiro[4.5]decan-8-yl)-3-methyl-1-oxobutan-2-yl)-2-fluoro-5-(trifluoromethyl)benzamide]",6.9
11,"CC(C)[C@@H](NC(=O)c1cc(C(F)(F)F)ccc1F)C(=O)N1CCC2(CC1)C(=O)NCC2c1ccc(F)cc1 (stereo partly drawn) [Compound 102, 2-fluoro-N-((2R)-1-(4-(4-fluorophenyl)-1-oxo-2,8-diazaspiro[4.5]decan-8-yl)-3-methyl-1-oxobutan-2-yl)-5-(trifluoromethyl)benzamide]",22.6
